{"source": "ChEMBL document CHEMBL1201862", "about": "“PubChem BioAssay data set” (2004)", "key": {"Large T antigen": {"molecular_target": "Large T antigen (Simian virus 40, UniProt P03070)", "sequence (P03070 whole entry)": "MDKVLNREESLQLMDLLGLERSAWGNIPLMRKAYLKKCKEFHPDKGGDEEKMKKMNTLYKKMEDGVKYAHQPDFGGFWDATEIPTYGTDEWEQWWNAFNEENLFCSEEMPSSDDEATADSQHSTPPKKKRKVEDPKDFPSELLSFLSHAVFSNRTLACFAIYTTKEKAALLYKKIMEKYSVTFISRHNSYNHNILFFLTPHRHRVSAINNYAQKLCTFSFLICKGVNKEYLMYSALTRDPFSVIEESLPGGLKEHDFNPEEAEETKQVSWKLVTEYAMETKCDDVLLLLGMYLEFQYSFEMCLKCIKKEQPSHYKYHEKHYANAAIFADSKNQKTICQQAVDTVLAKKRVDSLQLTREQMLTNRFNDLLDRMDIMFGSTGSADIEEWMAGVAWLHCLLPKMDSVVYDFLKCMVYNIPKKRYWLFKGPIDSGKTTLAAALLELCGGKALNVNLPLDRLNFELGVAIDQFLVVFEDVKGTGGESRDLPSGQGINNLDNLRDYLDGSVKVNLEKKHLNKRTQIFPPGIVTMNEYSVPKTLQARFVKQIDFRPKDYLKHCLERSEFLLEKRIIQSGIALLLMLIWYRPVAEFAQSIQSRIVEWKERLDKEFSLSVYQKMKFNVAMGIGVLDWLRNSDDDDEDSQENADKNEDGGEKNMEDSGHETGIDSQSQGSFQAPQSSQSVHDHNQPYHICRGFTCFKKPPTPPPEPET", "type": "functional, Betapolyomavirus macacae"}, "[1]": {"molecular_target": "T1, RNA-binding protein pos-1 (Caenorhabditis elegans, UniProt G5EF15)", "T1 sequence (G5EF15 whole entry)": "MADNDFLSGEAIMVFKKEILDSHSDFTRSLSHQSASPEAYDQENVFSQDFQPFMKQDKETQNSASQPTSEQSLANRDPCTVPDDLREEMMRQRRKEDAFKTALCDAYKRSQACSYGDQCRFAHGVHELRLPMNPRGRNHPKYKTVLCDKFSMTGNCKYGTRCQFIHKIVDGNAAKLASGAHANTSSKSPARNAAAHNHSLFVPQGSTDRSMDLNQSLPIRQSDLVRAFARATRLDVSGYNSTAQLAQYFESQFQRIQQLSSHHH", "experiment": "disruptors of C. elegans POS-1 RNA interaction – biochemical, fluorescence polarization, dose response (AID 1964);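 also: purified POS-1 fused to maltose binding protein made in E. coli; potency of compounds blocking POS-1 binding to fluorescent RNA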"}, "[2]": {"molecular_target": "FAD-linked sulfhydryl oxidase ALR (Homo sapiens, UniProt P55789)", "sequence (P55789 whole entry)": "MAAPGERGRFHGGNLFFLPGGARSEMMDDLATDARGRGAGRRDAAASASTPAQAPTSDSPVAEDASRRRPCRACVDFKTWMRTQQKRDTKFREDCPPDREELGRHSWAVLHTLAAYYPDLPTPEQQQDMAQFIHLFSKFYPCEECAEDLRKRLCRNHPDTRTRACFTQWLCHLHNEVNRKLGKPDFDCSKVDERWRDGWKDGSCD", "experiment": "ALR-catalysed DTT oxidation blockers – biochemical, H2O2 detection, luminescence, cherry-pick, dose response (AID 493248)"}, "[3]": {"molecular_target": "T2, Zinc finger protein mex-5 (Caenorhabditis elegans, UniProt Q9XUB2)", "T2 sequence (Q9XUB2 whole entry)": "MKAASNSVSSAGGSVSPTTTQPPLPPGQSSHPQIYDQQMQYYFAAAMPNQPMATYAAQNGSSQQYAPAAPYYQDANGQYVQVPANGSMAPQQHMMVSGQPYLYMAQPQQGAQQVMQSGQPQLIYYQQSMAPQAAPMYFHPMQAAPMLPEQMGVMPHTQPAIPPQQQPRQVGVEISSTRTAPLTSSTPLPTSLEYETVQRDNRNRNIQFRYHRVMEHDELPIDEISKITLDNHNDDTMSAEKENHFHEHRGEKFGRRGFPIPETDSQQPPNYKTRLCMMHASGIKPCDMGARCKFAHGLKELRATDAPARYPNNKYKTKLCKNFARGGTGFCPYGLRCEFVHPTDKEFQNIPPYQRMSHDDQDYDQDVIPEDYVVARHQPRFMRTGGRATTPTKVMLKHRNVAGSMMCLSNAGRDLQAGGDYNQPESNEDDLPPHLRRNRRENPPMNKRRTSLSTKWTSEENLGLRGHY", "experiment": "potency of MEX-5 RNA-binding blockers – biochemical, C. elegans, fluorescence polarization, dose response (AID 1960)"}, "[4]": {"molecular_target": "Glucose-6-phosphate 1-dehydrogenase (Homo sapiens, UniProt P11413)", "sequence (P11413 whole entry)": "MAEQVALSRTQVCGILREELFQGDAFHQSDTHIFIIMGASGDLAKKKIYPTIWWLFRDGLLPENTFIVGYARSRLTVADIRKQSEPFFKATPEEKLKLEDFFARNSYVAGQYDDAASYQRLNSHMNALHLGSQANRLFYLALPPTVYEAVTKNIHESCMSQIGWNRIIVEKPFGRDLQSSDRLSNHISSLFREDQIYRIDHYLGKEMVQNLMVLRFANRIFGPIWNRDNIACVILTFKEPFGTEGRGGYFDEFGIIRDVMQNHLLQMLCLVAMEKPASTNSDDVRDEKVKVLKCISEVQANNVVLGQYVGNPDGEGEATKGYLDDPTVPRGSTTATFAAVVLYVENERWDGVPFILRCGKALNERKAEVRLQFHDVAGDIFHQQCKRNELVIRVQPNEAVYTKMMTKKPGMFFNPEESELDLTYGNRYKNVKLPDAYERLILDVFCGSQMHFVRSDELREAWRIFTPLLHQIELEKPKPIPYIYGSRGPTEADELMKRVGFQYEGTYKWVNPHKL", "experiment": "inhibition of Homo sapiens G6PD, dose series – biochemical, fluorescence, selectivity assay for P. falciparum G6PD inhibitor project, dose response (AID 504792)", "type": "functional"}, "Nonstructural protein 1": {"molecular_target": "Nonstructural protein 1 (Influenza A virus, UniProt Q194T2)", "sequence (Q194T2 whole entry)": "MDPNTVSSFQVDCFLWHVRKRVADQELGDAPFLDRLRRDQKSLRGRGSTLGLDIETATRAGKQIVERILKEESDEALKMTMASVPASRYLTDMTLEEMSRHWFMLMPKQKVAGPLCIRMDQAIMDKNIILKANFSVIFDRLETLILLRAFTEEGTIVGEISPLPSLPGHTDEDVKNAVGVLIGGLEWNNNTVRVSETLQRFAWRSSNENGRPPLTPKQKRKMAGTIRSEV", "type": "functional, Influenza A virus (A/California/07/2009(H1N1))"}, "[5]": {"molecular_target": "T3, Long-chain-fatty-acid--AMP ligase FadD28 (Mycobacterium tuberculosis, UniProt P9WQ59)", "T3 sequence (P9WQ59 whole entry)": "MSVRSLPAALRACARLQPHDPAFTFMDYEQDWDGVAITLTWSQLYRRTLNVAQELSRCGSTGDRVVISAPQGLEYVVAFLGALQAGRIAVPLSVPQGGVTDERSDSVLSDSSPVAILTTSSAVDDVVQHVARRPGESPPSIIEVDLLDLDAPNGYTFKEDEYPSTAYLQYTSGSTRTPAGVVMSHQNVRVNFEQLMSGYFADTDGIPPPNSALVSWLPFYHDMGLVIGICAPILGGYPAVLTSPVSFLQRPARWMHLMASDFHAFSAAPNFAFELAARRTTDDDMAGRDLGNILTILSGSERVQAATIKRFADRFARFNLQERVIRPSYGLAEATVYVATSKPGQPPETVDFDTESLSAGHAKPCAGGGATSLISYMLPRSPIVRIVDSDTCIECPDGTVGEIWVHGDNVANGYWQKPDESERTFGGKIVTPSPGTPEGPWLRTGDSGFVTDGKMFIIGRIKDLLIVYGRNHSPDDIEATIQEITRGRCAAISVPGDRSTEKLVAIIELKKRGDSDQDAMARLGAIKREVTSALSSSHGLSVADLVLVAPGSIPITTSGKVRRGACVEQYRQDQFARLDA", "experiment": "Fluorescence polarization aasay to screen for inhibitors that compete for the binding of FadD28 to a bisubstrate Measured in Biochemical System Using Plate Reader - 2147-01_Inhibitor_Dose_CherryPick_Activity.", "type": "functional, Mycobacterium tuberculosis H37Rv"}, "[6]": {"experiment": "intracellular Trypanosoma cruzi inhibitors in host cells – cell-based, plate reader, cherry-pick samples, set 3, dose response (AID 651818);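 also: compounds incubated with infected cells for about four days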", "type": "functional"}, "[7]": {"experiment": "A Cell Based Secondary Assay To Explore Cytotoxicity of Compounds that Sensitize Mycobacterium Tuberculosis to Beta-Lactam Antibiotics.", "type": "functional"}, "Genome polyprotein": {"molecular_target": "Genome polyprotein (dengue virus type 2, UniProt P29990)", "sequence (P29990 2492-3391 limits assumed)": "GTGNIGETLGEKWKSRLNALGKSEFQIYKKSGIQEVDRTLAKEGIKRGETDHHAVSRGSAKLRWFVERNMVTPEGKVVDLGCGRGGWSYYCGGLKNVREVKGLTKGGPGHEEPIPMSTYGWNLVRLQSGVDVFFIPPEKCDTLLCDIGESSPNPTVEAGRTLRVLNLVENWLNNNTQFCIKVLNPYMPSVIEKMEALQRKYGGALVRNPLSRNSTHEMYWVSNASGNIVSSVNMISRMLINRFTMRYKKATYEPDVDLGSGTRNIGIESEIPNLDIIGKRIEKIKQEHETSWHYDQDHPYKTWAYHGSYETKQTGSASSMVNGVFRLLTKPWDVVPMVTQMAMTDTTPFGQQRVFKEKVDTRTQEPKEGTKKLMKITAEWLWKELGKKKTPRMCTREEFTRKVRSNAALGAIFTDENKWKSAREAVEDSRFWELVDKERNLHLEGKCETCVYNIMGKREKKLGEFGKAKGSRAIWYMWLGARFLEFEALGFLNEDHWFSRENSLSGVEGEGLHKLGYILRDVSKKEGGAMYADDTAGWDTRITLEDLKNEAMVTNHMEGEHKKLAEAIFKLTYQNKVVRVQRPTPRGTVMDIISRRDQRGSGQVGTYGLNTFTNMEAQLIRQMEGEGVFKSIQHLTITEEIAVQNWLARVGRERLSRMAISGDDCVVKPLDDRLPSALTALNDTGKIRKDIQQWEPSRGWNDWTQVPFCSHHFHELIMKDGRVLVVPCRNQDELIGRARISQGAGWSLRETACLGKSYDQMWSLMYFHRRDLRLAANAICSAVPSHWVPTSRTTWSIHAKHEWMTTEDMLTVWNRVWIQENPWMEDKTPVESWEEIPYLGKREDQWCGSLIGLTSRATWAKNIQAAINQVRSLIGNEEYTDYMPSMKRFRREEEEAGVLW", "experiment": "flavivirus cap methylation enzyme inhibition – biochemical, confirmation dose response, primary screen (AID 588689)", "type": "functional"}, "[8]": {"experiment": "Luminescence Cell-Based Dose Retest to Confirm Inhibitors of Cancer Stem Cells. [Related pubchem assays (depositor defined):AID2717, AID2721]", "type": "functional", "settings": "Homo sapiens"}, "[9]": {"experiment": "HIV-1 AD8 envelope cell-cell fusion blockers – cherry-pick, dose response (AID 652062);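 also: luciferase signal from cell-cell fusion driven by HIV-1 clade B AD8 Env; potency is for inhibitors of fusion seen as a drop in luminescence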", "type": "functional, cell-based"}, "[10]": {"experiment": "viability loss in CEM21 cells – cell-based, CellTiter-Glo luminescence, cherry-picked, cytotoxicity control for viral fusion inhibitor project, dose response (AID 652042);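 also: potency for signal decrease meaning cytotoxicity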", "type": "functional"}, "[11]": {"experiment": "blockers of HIV-1 ZM109 envelope-driven cell-cell fusion – HeLa effector, CEM target cells, luciferase, cherry-pick, dose response (AID 652058);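 also: luciferase signal from HIV-1 Env mediated cell-cell fusion of effector and target cells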", "type": "functional, cell-based"}, "P388/ADR": {"test_system": "P388/ADR", "experiment": "cells", "type": "functional", "settings": "Mus musculus, P388/ADR"}, "P388": {"test_system": "P388", "experiment": "cells", "type": "functional", "settings": "Mus musculus, P388"}, "SN12K1": {"test_system": "SN12K1", "experiment": "cells", "type": "functional", "settings": "Homo sapiens, SN12K1"}, "[12]": {"molecular_target": "Ras and Rab interactor 1/Tyrosine-protein kinase ABL1 (Homo sapiens, UniProt P00519+Q13671)", "sequence (P00519 whole entry)": "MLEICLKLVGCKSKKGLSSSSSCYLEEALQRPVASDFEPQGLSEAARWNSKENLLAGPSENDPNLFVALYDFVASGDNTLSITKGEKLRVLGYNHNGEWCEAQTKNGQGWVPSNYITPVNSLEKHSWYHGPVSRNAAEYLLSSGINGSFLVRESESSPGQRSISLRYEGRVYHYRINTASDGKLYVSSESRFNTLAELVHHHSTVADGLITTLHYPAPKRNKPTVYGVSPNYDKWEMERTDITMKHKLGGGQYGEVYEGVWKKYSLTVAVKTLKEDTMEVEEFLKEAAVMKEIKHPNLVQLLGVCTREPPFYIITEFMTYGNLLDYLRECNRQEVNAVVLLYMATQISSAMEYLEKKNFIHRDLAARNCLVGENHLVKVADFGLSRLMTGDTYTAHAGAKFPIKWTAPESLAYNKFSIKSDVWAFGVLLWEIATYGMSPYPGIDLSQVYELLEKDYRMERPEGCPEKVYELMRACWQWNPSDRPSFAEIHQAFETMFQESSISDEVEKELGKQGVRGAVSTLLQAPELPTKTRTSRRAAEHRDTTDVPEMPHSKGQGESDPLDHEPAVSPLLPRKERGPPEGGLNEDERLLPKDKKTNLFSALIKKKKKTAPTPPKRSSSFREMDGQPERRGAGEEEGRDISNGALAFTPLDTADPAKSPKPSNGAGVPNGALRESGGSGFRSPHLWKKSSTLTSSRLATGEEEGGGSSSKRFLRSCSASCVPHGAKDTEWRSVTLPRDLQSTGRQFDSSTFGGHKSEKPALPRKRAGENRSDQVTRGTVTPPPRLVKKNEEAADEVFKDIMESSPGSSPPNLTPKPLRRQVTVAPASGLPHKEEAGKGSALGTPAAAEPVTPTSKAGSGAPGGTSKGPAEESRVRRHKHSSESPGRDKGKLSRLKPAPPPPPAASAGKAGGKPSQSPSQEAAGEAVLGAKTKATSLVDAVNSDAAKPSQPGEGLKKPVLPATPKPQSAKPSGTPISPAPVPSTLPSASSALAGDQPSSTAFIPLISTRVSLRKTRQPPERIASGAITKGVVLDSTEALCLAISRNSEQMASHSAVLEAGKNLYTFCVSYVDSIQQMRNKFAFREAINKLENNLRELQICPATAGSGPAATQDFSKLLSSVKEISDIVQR", "sequence (Q13671 whole entry)": "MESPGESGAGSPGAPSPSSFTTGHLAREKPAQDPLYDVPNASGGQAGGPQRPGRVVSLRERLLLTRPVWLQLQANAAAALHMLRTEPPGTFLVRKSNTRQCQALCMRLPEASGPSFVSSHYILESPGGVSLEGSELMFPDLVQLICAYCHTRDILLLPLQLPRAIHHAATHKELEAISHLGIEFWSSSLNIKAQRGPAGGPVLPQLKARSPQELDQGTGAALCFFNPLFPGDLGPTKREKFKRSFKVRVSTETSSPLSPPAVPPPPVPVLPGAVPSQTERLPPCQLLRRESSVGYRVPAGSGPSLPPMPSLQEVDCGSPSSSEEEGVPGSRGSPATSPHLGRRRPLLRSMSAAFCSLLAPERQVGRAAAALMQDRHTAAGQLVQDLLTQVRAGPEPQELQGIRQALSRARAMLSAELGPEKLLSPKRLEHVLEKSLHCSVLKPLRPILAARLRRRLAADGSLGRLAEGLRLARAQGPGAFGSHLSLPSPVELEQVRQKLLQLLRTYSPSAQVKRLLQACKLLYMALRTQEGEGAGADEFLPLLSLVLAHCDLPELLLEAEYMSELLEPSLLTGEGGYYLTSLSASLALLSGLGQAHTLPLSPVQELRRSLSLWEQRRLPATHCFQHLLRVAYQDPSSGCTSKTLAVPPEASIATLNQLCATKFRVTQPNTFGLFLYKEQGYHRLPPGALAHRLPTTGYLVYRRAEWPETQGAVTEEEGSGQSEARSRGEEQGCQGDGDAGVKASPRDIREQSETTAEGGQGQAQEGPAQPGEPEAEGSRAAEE", "type": "functional"}, "Protein Wnt-3a": {"molecular_target": "Protein Wnt-3a (Mus musculus, UniProt P27467)", "experiment": "antagonism of Wnt3a pathway luciferase reporter – Wnt-LIGHT cells, luminescence, selectivity assay for Gli-SUFU antagonist project, dose response (AID 651570);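 also: Wnt-LIGHT reporter cells stimulated with conditioned medium from Wnt3a-producing cells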", "type": "functional", "settings": "read-out: IC50_Mean"}, "[13]": {"experiment": "A cytotoxicity screen of small molecule inhibitors of the PhoP region in Salmonella typhi identified in the primary screen. [Related pubchem assays: 1850, 1864, 1985 ]", "type": "functional"}, "[14]": {"molecular_target": "T4, Neuropeptides B/W receptor type 1 (Homo sapiens, UniProt P48145)", "T4 sequence (P48145 whole entry)": "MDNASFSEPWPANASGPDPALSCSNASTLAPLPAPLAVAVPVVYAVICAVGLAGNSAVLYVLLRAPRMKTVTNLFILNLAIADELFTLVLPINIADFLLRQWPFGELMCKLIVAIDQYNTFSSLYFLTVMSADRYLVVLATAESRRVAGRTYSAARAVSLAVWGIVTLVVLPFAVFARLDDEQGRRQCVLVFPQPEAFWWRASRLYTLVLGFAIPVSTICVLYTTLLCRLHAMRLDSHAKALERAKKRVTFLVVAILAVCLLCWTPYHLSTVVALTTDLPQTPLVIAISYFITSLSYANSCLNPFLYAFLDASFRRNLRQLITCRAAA", "experiment": "Fluorescence-based dose response cell-based high throughput screening assay to identify antagonists of the G-protein coupled receptor 7 (GPR7). [Related pubchem assays: 1952 (Screening assay (GPR7 antagonists).), 1880 (Summary AID.)]", "type": "functional"}, "[15]": {"molecular_target": "Melanin-concentrating hormone receptor 1 (Homo sapiens, UniProt Q99705)", "sequence (Q99705 whole entry)": "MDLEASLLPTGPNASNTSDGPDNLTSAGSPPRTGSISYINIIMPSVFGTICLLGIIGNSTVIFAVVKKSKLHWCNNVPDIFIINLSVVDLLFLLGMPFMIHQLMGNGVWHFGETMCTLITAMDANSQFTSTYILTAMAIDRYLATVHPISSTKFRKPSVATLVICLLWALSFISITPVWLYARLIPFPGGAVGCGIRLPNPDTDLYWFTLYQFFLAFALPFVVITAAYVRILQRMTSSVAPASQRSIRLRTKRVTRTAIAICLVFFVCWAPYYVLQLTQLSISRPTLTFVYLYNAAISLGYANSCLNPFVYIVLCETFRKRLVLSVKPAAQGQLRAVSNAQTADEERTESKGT", "experiment": "Fluorescence-based counterscreen for antagonists of the G-protein coupled receptor 7 (GPR7): cell-based high throughput dose response assay to identify antagonists of the melanin-concentrating hormone receptor 1 (MCHR1).", "type": "functional"}}, "note": "Activity calls are given as the source filed them."}
{"smiles": "CCCN1CCc2cccc3c2[C@H]1Cc1ccc(O)c(O)c1-3", "values": [{"measurement": "IC50", "setting": "Large T antigen", "result": "29.7 µM (active)"}, {"measurement": "EC50", "setting": "[1]", "result": "5.56 µM (active)"}, {"measurement": "AC50", "setting": "[2]", "result": "0.009 µM (active)"}, {"measurement": "EC50", "setting": "[3]", "result": "3.12 µM (active)"}, {"measurement": "IC50", "setting": "[4]", "result": "> 80 µM (inactive)"}]}
{"smiles": "O=C(NN1C(=O)/C(=C/c2nc3ccccc3[nH]2)SC1=S)c1ccccc1", "values": [{"measurement": "IC50", "setting": "Nonstructural protein 1", "result": "> 100 µM (active)"}, {"measurement": "AC50", "setting": "[5]", "result": "70.5 µM (active)"}]}
{"smiles": "C[C@H](CO)N1C[C@H](C)[C@H](CN(C)Cc2ccc(-c3ccccc3)cc2)Oc2c(NC(=O)NC3CCCCC3)cccc2C1=O", "values": [{"measurement": "AC50", "setting": "[6]", "result": "3.38 µM (active)"}]}
{"smiles": "Cc1ncc(CCl)c2c1OC(C)(C)OC2", "values": [{"measurement": "CC50", "setting": "[7]", "result": "> 40 µM (active)"}]}
{"smiles": "O=C1NN(c2cccc(Br)c2)C(=O)/C1=C\\c1ccccc1", "values": [{"measurement": "IC50", "setting": "Genome polyprotein", "result": "35.1 µM (active)"}, {"measurement": "AC50", "setting": "[8]", "result": "3.04 µM (active)"}, {"measurement": "AC50", "setting": "[5]", "result": "> 100 µM (inactive)"}]}
{"smiles": "Cc1ccc(S(=O)(=O)N(C)C[C@@H]2Oc3cc(C#CC4CCCC4)ccc3S(=O)(=O)N([C@H](C)CO)C[C@H]2C)cc1", "values": [{"measurement": "AC50", "setting": "[9]", "result": "35.2 µM (active)"}, {"measurement": "AC50", "setting": "[10]", "result": "61.4 µM (active)"}, {"measurement": "AC50", "setting": "[11]", "result": "2.34 µM (active)"}]}
{"smiles": "O=P1(Oc2ccc(Cl)cc2Cl)Oc2ccc3ccccc3c2-c2c(ccc3ccccc23)O1", "values": [{"measurement": "GI50", "setting": "P388/ADR", "result": "51.4 µM (inactive)"}, {"measurement": "GI50", "setting": "P388", "result": "33.3 µM (inactive)"}, {"measurement": "GI50", "setting": "SN12K1", "result": "20.7 µM (inactive)"}]}
{"smiles": "OCCCNc1ncnc2c1ncn2[C@H]1CN(Cc2ccc(-c3ccccc3)cc2)C[C@@H](CO)O1", "values": [{"measurement": "IC50", "setting": "[12]", "result": "20.6 µM (inactive)"}]}
{"smiles": "CN(C(=O)c1ccc(NC(=O)Cc2ccc(NC(=O)C3CCN(C(=O)C4CCCC4)CC3)cc2)cc1)C1CCCC1", "values": [{"measurement": "IC50", "setting": "[12]", "result": "12.6 µM (inactive)"}]}
{"smiles": "Cc1ccc(C(=O)N2CCN3C(=O)c4ccccc4C23c2ccc(Cl)cc2)cc1", "note": "(stereo unspecified)", "values": [{"measurement": "IC50", "setting": "Protein Wnt-3a", "result": "10.3 µM (active)"}]}
{"smiles": "Cc1ccnc(NC(=O)CCC(=O)N(CC(=O)NC2CCCCC2)C2CCCC2)c1", "values": [{"measurement": "EC50", "setting": "[13]", "result": "> 50 µM (active)"}]}
{"smiles": "CCCCn1c(N)c(N(CC(C)C)C(=O)c2ccc(COc3ccccc3)o2)c(=O)[nH]c1=O", "values": [{"measurement": "IC50", "setting": "[14]", "result": "> 43.8 µM (not active)"}, {"measurement": "IC50", "setting": "[15]", "result": "> 43.8 µM (not active)"}]}
{"smiles": "CCC1(CC)Cc2ccccc2C(N)=C1C#N", "values": [{"measurement": "CC50", "setting": "[7]", "result": "> 40 µM (active)"}, {"measurement": "IC50", "setting": "[4]", "result": "> 80 µM (inactive)"}]}
{"smiles": "CCc1ccc(N(C(=O)c2csnn2)C(C(=O)NC2CCCCC2)c2ccncc2)cc1", "note": "(stereo unspecified)", "values": [{"measurement": "IC50", "setting": "[14]", "result": "> 43.8 µM (not active)"}, {"measurement": "IC50", "setting": "[15]", "result": "> 43.8 µM (not active)"}]}
{"smiles": "Nc1cc2c(cc1[N+](=O)[O-])[nH]c1c(-c3ccccc3)nccc12", "values": [{"measurement": "GI50", "setting": "P388/ADR", "result": "17.7 µM (inactive)"}, {"measurement": "GI50", "setting": "P388", "result": "17.2 µM (inactive)"}, {"measurement": "GI50", "setting": "SN12K1", "result": "20.7 µM (inactive)"}]}
